≈ marks a conversion by molar mass, not a printed value. Like-named read-outs stand apart in the source and are kept apart here.
Assays:
Assay in all cases: In vitro MIC, broth dilution
Format in all cases: cell-based
[1] = system: E. faecalis GC 2242; conditions: Enterococcus faecalis, GC2242
In short: (§1)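 Test strains at 5×10^5 CFU/ml face antibiotic from 64 down to 0.06 μg/ml in Mueller-Hinton II, NCCLS broth dilution. MIC is read as the lowest growth-inhibiting concentration after 18 h at 35 °C.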

[2] = system: S. aureus GC 4536; conditions: Staphylococcus aureus, GC4536
In short: as §1

[3] = system: S. aureus GC 2216; conditions: Staphylococcus aureus, GC2216
In short: as §1

[4] = system: E. faecalis GC 842; conditions: Enterococcus faecalis, GC842
In short: as §1

[5] = system: S. aureus GC 1131; conditions: Staphylococcus aureus, GC1131
In short: as §1

[6] = system: CNS GC 4547
In short: as §1

[7] = system: CNS GC 4537
In short: as §1

[8] = system: CNS GC 4538
In short: as §1

[9] = system: E. faecalis GC 4555; conditions: Enterococcus faecalis, GC4555
In short: as §1

[10] = system: E. cloacae GC 3783; conditions: Enterobacter cloacae, GC3783
[11] = system: S. marcescens GC 4077; conditions: Serratia marcescens, GC4077
[12] = system: E. coli GC 4560; conditions: Escherichia coli, GC4560
[13] = system: E. coli GC 2203; conditions: Escherichia coli, GC2203
[14] = system: C. albicans GC 3066; conditions: Candida albicans, GC3066
[15] = system: E. coli GC 3226; conditions: Escherichia coli, GC3226
[16] = system: P. aeruginosa GC 4532; conditions: Pseudomonas aeruginosa, GC4532
[17] = system: K. pneumoniae GC 4534; conditions: Klebsiella pneumoniae, GC4534
[18] = system: E. coli GC 4559; conditions: Escherichia coli, GC4559
[19] = system: P. aeruginosa GC 2214; conditions: Pseudomonas aeruginosa, GC2214
[20] = system: M. morganii GC 4531; conditions: Morganella morganii, GC4531
[21] = E. faecalis GC 2242, read-out: MIC
[22] = S. aureus GC 4536, read-out: MIC
[23] = S. aureus GC 2216, read-out: MIC
[24] = E. faecalis GC 842, read-out: MIC
[25] = S. aureus GC 1131, read-out: MIC
[26] = E. faecalis GC 4555, read-out: MIC
[27] = E. cloacae GC 3783, read-out: MIC
[28] = S. marcescens GC 4077, read-out: MIC
[29] = C. albicans GC 3066, read-out: MIC
[30] = P. aeruginosa GC 4532, read-out: MIC
[31] = K. pneumoniae GC 4534, read-out: MIC
[32] = P. aeruginosa GC 2214, read-out: MIC
[33] = M. morganii GC 4531, read-out: MIC

| SMILES | MIC [1] [µg/mL] | MIC [2] [µg/mL] | MIC [3] [µg/mL] | MIC [4] [µg/mL] | MIC [5] [µg/mL] | MIC [6] [µg/mL] | MIC [7] [µg/mL] | MIC [8] [µg/mL] | MIC [9] [µg/mL] | MIC [10] [µg/mL] | MIC [11] [µg/mL] | MIC [12] [µg/mL] | MIC [13] [µg/mL] | MIC [14] [µg/mL] | MIC [15] [µg/mL] | MIC [16] [µg/mL] | MIC [17] [µg/mL] | MIC [18] [µg/mL] | MIC [19] [µg/mL] | MIC [20] [µg/mL] | other results |
| --- | --- | --- | --- | --- | --- | --- | --- | --- | --- | --- | --- | --- | --- | --- | --- | --- | --- | --- | --- | --- | --- |
| COc1ccc(Cn2c(=O)ccn([C@@H]3OC([C@H](O)[C@H](NCCCNC(=O)[C@H](CC(=O)OCc4ccccc4)NC(=O)OCc4ccccc4)C(=O)OC(C)(C)C)[C@@H](O[Si](C)(C)C(C)(C)C)[C@H]3O[Si](C)(C)C(C)(C)C)c2=O)cc1 (stereo partly drawn) [Example 16, tert-Butyl (5S,12S)-5-[2-(benzyloxy)-2-oxoethyl]-12-[(R)-[(3R,4R,5R)-3,4-bis{[tert-butyl(dimethyl)silyl]oxy}-5-(3-(4-methoxybenzyl)-2,4-dioxo-3,4-dihydro-1(2H)-pyrimidinyl)tetrahydro-2-furanyl](hydroxy)methyl]-3,6-dioxo-1-phenyl-2-oxa-4,7,11-triazatridecan-13-oate] | 128 (≈ 114 µM) | > 128 | > 128 | > 128 | > 128 | > 128 | > 128 | > 128 | > 128 | > 128 | > 128 | > 128 | > 128 | 128 (≈ 114 µM) | > 128 | > 128 | > 128 | > 128 | > 128 | > 128 | – |
| COc1ccc(Cn2c(=O)ccn([C@@H]3OC([C@H](O)[C@H](NCCCNC(=O)[C@H](CCCCNC(=O)OCc4ccccc4)NC(=O)OCc4ccccc4)C(=O)OC(C)(C)C)[C@@H](O[Si](C)(C)C(C)(C)C)[C@H]3O[Si](C)(C)C(C)(C)C)c2=O)cc1 (stereo partly drawn) [Example 18, tert-Butyl (9S,16S)-9-{[(benzyloxy)carbonyl]amino}-16-[(R)-[(3R,4R,5R)-3,4-bis{[tert-butyl(dimethyl)silyl]oxy}-5-(3-(4-methoxybenzyl)-2,4-dioxo-3,4-dihydro-1(2H)-pyrimidinyl)tetrahydro-2-furanyl](hydroxy)methyl]-3,10-dioxo-1-phenyl-2-oxa-4,11,15-triazaheptadecan-17-oate] | 128 (≈ 109 µM) | > 128 | > 128 | > 128 | > 128 | > 128 | > 128 | > 128 | > 128 | > 128 | > 128 | > 128 | > 128 | > 128 | > 128 | > 128 | > 128 | > 128 | > 128 | > 128 | – |
| COc1ccc(Cn2c(=O)ccn([C@@H]3OC([C@H](O)[C@H](NCCCNC(=O)[C@@H](N)CCCCN)C(=O)OC(C)(C)C)[C@@H](O[Si](C)(C)C(C)(C)C)[C@H]3O[Si](C)(C)C(C)(C)C)c2=O)cc1 (stereo partly drawn) [Example 19, tert-Butyl (2S,3R)-3-[(3R,4R,5R)-3,4-bis{[tert-butyl(dimethyl)silyl]oxy}-5-(3-(4-methoxybenzyl)-2,4-dioxo-3,4-dihydro-1(2H)-pyrimidinyl)tetrahydro-2-furanyl]-2-[(3-{[(2S)-2,6-diaminohexanoyl]amino}propyl)amino]-3-hydroxypropanoate] | – | – | – | – | – | – | – | – | – | – | – | – | – | – | – | – | – | – | – | – | MIC [1, 21]: 8 µg/mL (≈ 8.82 µM); MIC [2, 22]: 8 µg/mL (≈ 8.82 µM); MIC [3, 23]: 8 µg/mL (≈ 8.82 µM); MIC [4, 24]: 8 µg/mL (≈ 8.82 µM); MIC [5, 25]: 4 µg/mL (≈ 4.41 µM); MIC ([6]; CNS GC 4547, read-out: MIC): 16 µg/mL (≈ 17.6 µM); MIC ([7]; CNS GC 4537, read-out: MIC): 8 µg/mL (≈ 8.82 µM); MIC ([8]; CNS GC 4538, read-out: MIC): 8 µg/mL (≈ 8.82 µM); MIC [9, 26]: 8 µg/mL (≈ 8.82 µM); MIC [10, 27]: > 128 µg/mL; MIC [11, 28]: 128 µg/mL (≈ 141 µM); MIC ([12]; E. coli GC 4560, read-out: MIC): 8 µg/mL (≈ 8.82 µM); MIC ([13]; E. coli GC 2203, read-out: MIC): 128 µg/mL (≈ 141 µM); MIC [14, 29]: > 128 µg/mL; MIC ([15]; E. coli GC 3226, read-out: MIC): 128 µg/mL (≈ 141 µM); MIC [16, 30]: 128 µg/mL (≈ 141 µM); MIC [17, 31]: > 128 µg/mL; MIC ([18]; E. coli GC 4559, read-out: MIC): > 128 µg/mL; MIC [19, 32]: 128 µg/mL (≈ 141 µM); MIC [20, 33]: 128 µg/mL (≈ 141 µM) |
| COc1ccc(Cn2c(=O)ccn([C@@H]3OC([C@H](O)[C@H](NCCCNC(=O)[C@H](CCC(=O)OC(C)(C)C)NC(=O)OCc4ccccc4)C(=O)OC(C)(C)C)[C@@H](O[Si](C)(C)C(C)(C)C)[C@H]3O[Si](C)(C)C(C)(C)C)c2=O)cc1 (stereo partly drawn) [Example 20, tert-Butyl (5S,12S)-12-[(R)-[(3R,4R,5R)-3,4-bis{[tert-butyl(dimethyl)silyl]oxy}-5-(3-(4-methoxybenzyl)-2,4-dioxo-3,4-dihydro-1(2H)-pyrimidinyl)tetrahydro-2-furanyl](hydroxy)methyl]-5-[3-(tert-butoxy)-3-oxopropyl]-3,6-dioxo-1-phenyl-2-oxa-4,7,11-triazatridecan-13-oate] | > 128 | > 128 | > 128 | > 128 | > 128 | > 128 | > 128 | > 128 | > 128 | > 128 | > 128 | > 128 | > 128 | 128 (≈ 117 µM) | > 128 | 128 (≈ 117 µM) | > 128 | > 128 | 128 (≈ 117 µM) | > 128 | – |
| COc1ccc(Cn2c(=O)ccn([C@@H]3OC([C@H](O)[C@H](NCCCNC(=O)[C@@H](N)CCC(=O)OC(C)(C)C)C(=O)OC(C)(C)C)[C@@H](O[Si](C)(C)C(C)(C)C)[C@H]3O[Si](C)(C)C(C)(C)C)c2=O)cc1 (stereo partly drawn) [Example 21, tert-Butyl (4S)-4-amino-5-[(3-{[(1S,2R)-2-[(3R,4R,5R)-3,4-bis{[tert-butyl(dimethyl)silyl]oxy}-5-(3-(4-methoxybenzyl)-2,4-dioxo-3,4-dihydro-1(2H)-pyrimidinyl)tetrahydro-2-furanyl]-1-(tert-butoxycarbonyl)-2-hydroxyethyl]amino}propyl)amino]-5-oxopentanoate] | – | – | – | – | – | – | – | – | – | – | – | – | – | – | – | – | – | – | – | – | MIC [1, 21]: > 128 µg/mL; MIC [2, 22]: > 128 µg/mL; MIC [3, 23]: > 128 µg/mL; MIC [4, 24]: > 128 µg/mL; MIC [5, 25]: > 128 µg/mL; MIC ([6]; CNS GC 4547, read-out: MIC): > 128 µg/mL; MIC ([7]; CNS GC 4537, read-out: MIC): > 128 µg/mL; MIC ([8]; CNS GC 4538, read-out: MIC): > 128 µg/mL; MIC [9, 26]: > 128 µg/mL; MIC [10, 27]: > 128 µg/mL; MIC [11, 28]: > 128 µg/mL; MIC ([12]; E. coli GC 4560, read-out: MIC): > 128 µg/mL; MIC ([13]; E. coli GC 2203, read-out: MIC): > 128 µg/mL; MIC [14, 29]: > 128 µg/mL; MIC ([15]; E. coli GC 3226, read-out: MIC): > 128 µg/mL; MIC [16, 30]: > 128 µg/mL; MIC [17, 31]: > 128 µg/mL; MIC ([18]; E. coli GC 4559, read-out: MIC): > 128 µg/mL; MIC [19, 32]: > 128 µg/mL; MIC [20, 33]: > 128 µg/mL |
| COc1ccc(Cn2c(=O)ccn([C@@H]3OC([C@H](O)[C@H](NC(=O)CCCCCCCCCCNC(=O)OCC4c5ccccc5-c5ccccc54)C(=O)OC(C)(C)C)[C@@H](O[Si](C)(C)C(C)(C)C)[C@H]3O[Si](C)(C)C(C)(C)C)c2=O)cc1 (stereo partly drawn) [Example 22, tert-Butyl (2S,3R)-3-[(3R,4R,5R)-3,4-bis{[tert-butyl(dimethyl)silyl]oxy}-5-(3-(4-methoxybenzyl)-2,4-dioxo-3,4-dihydro-1(2H)-pyrimidinyl)tetrahydro-2-furanyl]-2-[(11-{[(9H-fluoren-9-ylmethoxy)carbonyl]amino}undecanoyl)-amino]-3-hydroxypropanoate] | > 128 | > 128 | > 128 | > 128 | > 128 | > 128 | > 128 | > 128 | > 128 | > 128 | > 128 | > 128 | > 128 | > 128 | > 128 | > 128 | > 128 | > 128 | > 128 | > 128 | – |

Reference: patent publication US6858591B2, “Antibiotic AA 896 analogs” (Wyeth Holdings Corporation, priority 2001, dated 2005)
